The record followed here is patent publication US20230129258A1, “HETEROTANDEM BICYCLIC PEPTIDE COMPLEXES” (BicycleTx Limited, priority 2019, published 2023).

In the experiment the target is CD137 (Homo sapiens, UniProt Q07011). Nature of the experiment: CD137 reporter assay (Promega CD137 luciferase reporter, Jurkat cells) in co-culture with Nectin-4-expressing tumor cells. It is filed as cell-based. Particulars: co-culture with HT1376, Table 2A; for EC50: EC50 (nM). Also noted: host or cells: Jurkat reporter cells.

The EC50 is the concentration that produces a half-maximal response.

Sequence of CD137 (Q07011 24-255): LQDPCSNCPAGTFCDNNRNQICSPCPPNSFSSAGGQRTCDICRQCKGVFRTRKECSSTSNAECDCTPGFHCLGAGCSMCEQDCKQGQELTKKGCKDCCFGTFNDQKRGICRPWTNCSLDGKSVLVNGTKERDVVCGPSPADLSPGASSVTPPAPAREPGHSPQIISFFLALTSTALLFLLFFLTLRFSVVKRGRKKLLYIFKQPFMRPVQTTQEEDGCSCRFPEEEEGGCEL

As for `CCCC[C@@H]1NC(=O)[C@H](Cc2ccc(O)cc2)NC(=O)[C@@H]2CCCN2C(=O)[C@H](CC(=O)O)NC(=O)[C@H](C)NC(=O)[C@H](Cc2ccccc2)NC(=O)[C@@H]2CSCCC(=O)N3CN(CN(C3)C(=O)CCSC[C@@H](C(=O)N[C@@H](CNC(=O)CCc3cn(CCOCCOCCOCCOCCOCCOCCOCCOCCOCCOCCNC(=O)c4cc(C(=O)NCCOCCOCCOCCOCCOCCOCCOCCOCCOCCOCCn5cc(CCC(=O)NC[C@H](NC(=O)[C@@H]6CSCCC(=O)N7CN8CN(C7)C(=O)CCSC[C@H](NC(=O)[C@H](Cc7ccc(O)cc7)NC(=O)[C@@H]7CCCN7C(=O)[C@@H](C)NC(=O)[C@H](CCC(=O)O)NC(=O)[C@@H]7CCCN7C(=O)[C@H](CC(C)(C)C)NC(=O)[C@@H](NC(C)=O)CSCCC8=O)C(=O)N[C@@H](Cc7ccccc7)C(=O)N[C@@H](C)C(=O)N[C@@H](CC(=O)O)C(=O)N7CCC[C@H]7C(=O)N[C@@H](Cc7ccc(O)cc7)C(=O)N[C@@H](CCCC)C(=O)N6)C(N)=O)nn5)cc(C(=O)NCCOCCOCCOCCOCCOCCOCCOCCOCCOCCOCCn5cc(CCC(=O)N[C@H]6CSCCC(=O)N7CN8CN(C7)C(=O)CCSC[C@H](NC(=O)[C@@H](CC(=O)O)NC(=O)[C@H](Cc7cccc9ccccc79)NC(=O)[C@@H]7CCCN7C6=O)C(=O)N[C@@H](CCSC)C(=O)N[C@@H](CCCCNC(=N)N)C(=O)N[C@@H](CC(=O)O)C(=O)N[C@@H](Cc6c[nH]c7ccccc67)C(=O)N[C@@H](CO)C(=O)N[C@@H]([C@@H](C)O)C(=O)N6CCC[C@H]6C(=O)N6C[C@H](O)C[C@H]6C(=O)N[C@@H](Cc6c[nH]c7ccccc67)C(=O)N[C@H](C(N)=O)CSCCC8=O)nn5)c4)nn3)C(N)=O)NC1=O)C(=O)CCSC[C@H](NC(C)=O)C(=O)N[C@@H](CC(C)(C)C)C(=O)N1CCC[C@H]1C(=O)N[C@@H](CCC(=O)O)C(=O)N[C@H](C)C(=O)N1CCC[C@H]1C(=O)N[C@@H](Cc1ccc(O)cc1)C(=O)N2` [BCY10919], it took 0.19 nM to reach a half-maximal effect (EC50) and the Emax was 62 fold induction over background. Take `CCCC[C@@H]1NC(=O)[C@H](Cc2ccc(O)cc2)NC(=O)[C@@H]2CCCN2C(=O)[C@H](CC(=O)O)NC(=O)[C@H](C)NC(=O)[C@H](Cc2ccccc2)NC(=O)[C@@H]2CSCCC(=O)N3CN(CN(C3)C(=O)CCSC[C@@H](C(=O)N[C@@H](C)C(N)=O)NC1=O)C(=O)CCSC[C@H](NC(C)=O)C(=O)N[C@@H](CC(C)(C)C)C(=O)N1CCC[C@H]1C(=O)N[C@@H](CCC(=O)O)C(=O)N[C@H](CCCCNC(=O)CCc1cn(CCOCCOCCOCCOCCOCCOCCOCCOCCOCCOCCNC(=O)CCOCCN(CCOCCC(=O)NCCOCCOCCOCCOCCOCCOCCOCCOCCOCCOCCn3cc(CCC(=O)NCCCC[C@H]4NC(=O)[C@H](CCC(=O)O)NC(=O)[C@@H]5CCCN5C(=O)[C@H](CC(C)(C)C)NC(=O)[C@@H](NC(C)=O)CSCCC(=O)N5CN6CN(C5)C(=O)CCSC[C@H](NC(=O)[C@H](Cc5ccc(O)cc5)NC(=O)[C@@H]5CCCN5C4=O)C(=O)N[C@@H](Cc4ccccc4)C(=O)N[C@@H](C)C(=O)N[C@@H](CC(=O)O)C(=O)N4CCC[C@H]4C(=O)N[C@@H](Cc4ccc(O)cc4)C(=O)N[C@@H](CCCC)C(=O)N[C@H](C(=O)N[C@@H](C)C(N)=O)CSCCC6=O)nn3)CCOCCC(=O)NCCOCCOCCOCCOCCOCCOCCOCCOCCOCCOCCn3cc(CCC(=O)N[C@H]4CSCCC(=O)N5CN6CN(C5)C(=O)CCSC[C@H](NC(=O)[C@@H](CC(=O)O)NC(=O)[C@H](Cc5cccc7ccccc57)NC(=O)[C@@H]5CCCN5C4=O)C(=O)N[C@@H](CCSC)C(=O)N[C@@H](CCCCNC(=N)N)C(=O)N[C@@H](CC(=O)O)C(=O)N[C@@H](Cc4c[nH]c5ccccc45)C(=O)N[C@@H](CO)C(=O)N[C@@H]([C@@H](C)O)C(=O)N4CCC[C@H]4C(=O)N4C[C@H](O)C[C@H]4C(=O)N[C@@H](Cc4c[nH]c5ccccc45)C(=O)N[C@H](C(N)=O)CSCCC6=O)nn3)nn1)C(=O)N1CCC[C@H]1C(=O)N[C@@H](Cc1ccc(O)cc1)C(=O)N2` [BCY11027]: the EC50 worked out at 0.18 nM.

Take `CCCC[C@@H]1NC(=O)[C@H](Cc2ccc(O)cc2)NC(=O)[C@@H]2CCCN2C(=O)[C@H](CC(=O)O)NC(=O)[C@H](C)NC(=O)[C@H](Cc2ccccc2)NC(=O)[C@@H]2CSCCC(=O)N3CN(CN(C3)C(=O)CCSC[C@@H](C(=O)N[C@@H](C)C(N)=O)NC1=O)C(=O)CCSC[C@H](NC(C)=O)C(=O)N[C@@H](CC(C)(C)C)C(=O)N1CCC[C@H]1C(=O)N[C@@H](CCC(=O)O)C(=O)N[C@H](CCCCNC(=O)CCc1cn(CCOCCOCCOCCN(CCOCCOCCOCCC(=O)N[C@H]3CSCCC(=O)N4CN5CN(C4)C(=O)CCSC[C@H](NC(=O)[C@@H](CC(=O)O)NC(=O)[C@H](Cc4cccc6ccccc46)NC(=O)[C@@H]4CCCN4C3=O)C(=O)N[C@@H](CCSC)C(=O)N[C@@H](CCCCNC(=N)N)C(=O)N[C@@H](CC(=O)O)C(=O)N[C@@H](Cc3c[nH]c4ccccc34)C(=O)N[C@@H](CO)C(=O)N[C@@H]([C@@H](C)O)C(=O)N3CCC[C@H]3C(=O)N3C[C@H](O)C[C@H]3C(=O)N[C@@H](Cc3c[nH]c4ccccc34)C(=O)N[C@H](C(N)=O)CSCCC5=O)CCOCCOCCOCCn3cc(CCC(=O)NCCCC[C@H]4NC(=O)[C@H](CCC(=O)O)NC(=O)[C@@H]5CCCN5C(=O)[C@H](CC(C)(C)C)NC(=O)[C@@H](NC(C)=O)CSCCC(=O)N5CN6CN(C5)C(=O)CCSC[C@H](NC(=O)[C@H](Cc5ccc(O)cc5)NC(=O)[C@@H]5CCCN5C4=O)C(=O)N[C@@H](Cc4ccccc4)C(=O)N[C@@H](C)C(=O)N[C@@H](CC(=O)O)C(=O)N4CCC[C@H]4C(=O)N[C@@H](Cc4ccc(O)cc4)C(=O)N[C@@H](CCCC)C(=O)N[C@H](C(=O)N[C@@H](CCCCNC(=O)c4ccc(-c5c7ccc(=N)c(S(=O)(=O)O)c-7oc7c(S(=O)(=O)O)c(N)ccc57)c(C(=O)O)c4)C(N)=O)CSCCC6=O)nn3)nn1)C(=O)N1CCC[C@H]1C(=O)N[C@@H](Cc1ccc(O)cc1)C(=O)N2` [BCY13583]: the Emax is 63 fold induction over background. Turning to `CCCC[C@@H]1NC(=O)[C@H](Cc2ccc(O)cc2)NC(=O)[C@@H]2CCCN2C(=O)[C@H](CC(=O)O)NC(=O)[C@H](C)NC(=O)[C@H](Cc2ccccc2)NC(=O)[C@@H]2CSCCC(=O)N3CN(CN(C3)C(=O)CCSC[C@@H](C(=O)N[C@@H](C)C(N)=O)NC1=O)C(=O)CCSC[C@H](NC(C)=O)C(=O)N[C@@H](CC(C)(C)C)C(=O)N1CCC[C@H]1C(=O)N[C@@H](CCC(=O)O)C(=O)N[C@H](CCCCNC(=O)CCc1cn(CCOCCOCCOCCN(CCOCCOCCOCCC(=O)NCCCC[C@H]3NC(=O)[C@H](Cc4cccc5ccccc45)NC(=O)[C@@H]4CCCN4C(=O)[C@@H](NC(C)=O)CSCCC(=O)N4CN5CN(C4)C(=O)CCSC[C@H](NC3=O)C(=O)N[C@@H](CCSC)C(=O)N[C@@H](CCCCNC(=N)N)C(=O)N[C@@H](CC(=O)O)C(=O)N[C@@H](Cc3c[nH]c4ccccc34)C(=O)N[C@@H](CO)C(=O)N[C@@H]([C@@H](C)O)C(=O)N3CCC[C@H]3C(=O)N3C[C@H](O)C[C@H]3C(=O)N[C@@H](Cc3c[nH]c4ccccc34)C(=O)N[C@H](C(N)=O)CSCCC5=O)CCOCCOCCOCCn3cc(CCC(=O)NCCCC[C@H]4NC(=O)[C@H](CCC(=O)O)NC(=O)[C@@H]5CCCN5C(=O)[C@H](CC(C)(C)C)NC(=O)[C@@H](NC(C)=O)CSCCC(=O)N5CN6CN(C5)C(=O)CCSC[C@H](NC(=O)[C@H](Cc5ccc(O)cc5)NC(=O)[C@@H]5CCCN5C4=O)C(=O)N[C@@H](Cc4ccccc4)C(=O)N[C@@H](C)C(=O)N[C@@H](CC(=O)O)C(=O)N4CCC[C@H]4C(=O)N[C@@H](Cc4ccc(O)cc4)C(=O)N[C@@H](CCCC)C(=O)N[C@H](C(=O)N[C@@H](C)C(N)=O)CSCCC6=O)nn3)nn1)C(=O)N1CCC[C@H]1C(=O)N[C@@H](Cc1ccc(O)cc1)C(=O)N2` [BCY12490], a half-maximal effect (EC50) was put at 0.23 nM.
